Bridge positions count the residues as written; N and C are the ends. Ends that are not written are not given here.
Test system: plasma calcium concentration
Assay: Evaluation of physiological activity of PEGylated salmon calcitonin (blood calcium concentration)
Assay type: in vivo, mouse
Design: dose or concentration left out as unconfirmed
Conditions: Balb/c mice, sCT dose, plasma at 1, 6, 24 hr, compared to PBS group, FIG. 16
Protocol: The method for evaluating the physiological activity of a degradable polyethylene glycol derivative-bonded bio-related substance is not particular limited. For example, when the bio-related substance is insulin, blood sugar concentration is measured, and when it is calcitonin, blood calcium concentration is measured, by periodically collecting blood from the animal that received administration and measuring the substance in the blood by using an appropriate analytical instrument, and the like, based on which the evaluation can be performed. Specifically, in the case of insulin, a glucose measurement kit is used to monitor a decrease in glucose concentration after administration and, in the case of calcitonin, a decrease in calcium concentration after administration is monitored using a calcium measurement kit, based on which the evaluation can be performed.
The physiological activities of 4 groups of sCT-E(FG-200ME)2 which is SCT to which degradable polyethylene glycol derivative with a molecular weight of 40,000 is bonded and methoxy PEG 40 kDa-sCT, in which non-degradable methoxy PEG 40 kDa is bonded, each of which is obtained in Example 9, unmodified sCT, and PBS were comparatively evaluated in animal experiments. […]

Unmodified sCT: salmon calcitonin (sCT) with the amino acid sequence CSNLSTCVLGKLSQELHKLQTYPRTNTGSGTP (SEQ ID NO: 1) (CSNLSTCVLGKLSQELHKLQTYPRTNTGSGTP-NH2; disulfide 1-7; ends not checked; listed as Oncorhynchus keta)
plasma calcium concentration after administration (in words): showed an increase in calcium concentration from 6 hr after administration
